In brackets after ≈: the same amount, converted by molar mass.
Experiments:
[1] = molecular target: Sodium channel protein type 9 subunit alpha (Homo sapiens, UniProt Q15858); experiment: Inhibition of Nav1.7 by cell based whole-cell voltage clamp electrophysiology assay
[2] = molecular target: Sodium channel protein type 5 subunit alpha (Homo sapiens, UniProt Q14524); experiment: Inhibition of Nav1.5 by cell based whole-cell voltage clamp electrophysiology assay
[3] = molecular target: Voltage-gated inwardly rectifying potassium channel KCNH2 (Homo sapiens, UniProt Q12809); experiment: Inhibition of human ERG
[4] = Solubility of the compound; assay type: physicochemical
Rattus norvegicus [5] = experiment: Dose normalized AUC in Sprague-Dawley rat at 3 umol/kg, iv; assay type: ADME, organism-based; conditions: in vivo
[6] = Volume of distribution at steady state in Sprague-Dawley rat at 3 umol/kg, iv; assay type: ADME, organism-based; conditions: in vivo, read-out: Vdss
[7] = Terminal half life in Sprague-Dawley rat at 3 umol/kg, iv; assay type: ADME, organism-based; conditions: in vivo, read-out: beta t1/2 (converted)
[8] = Clearance in Sprague-Dawley rat at 3 umol/kg, iv; assay type: ADME, organism-based; conditions: in vivo
Rattus norvegicus [9] = experiment: Dose normalized AUC in Sprague-Dawley rat at 10 umol/kg, po; assay type: ADME, organism-based; conditions: in vivo
[10] = Cmax in Sprague-Dawley rat at 10 umol/kg, po; assay type: ADME, organism-based; design: dose 10 umol/kg, route oral; conditions: in vivo
[11] = Tmax in Sprague-Dawley rat at 10 umol/kg, po; assay type: ADME, organism-based; conditions: in vivo
[12] = Oral bioavailability in Sprague-Dawley rat at 10 umol/kg; assay type: ADME, organism-based; conditions: in vivo
[13] = Intrinsic clearance in rat liver microsomes; assay type: ADME, Microsome
[14] = Intrinsic clearance in human liver microsomes; assay type: ADME, Microsome
[15] = Half life in Sprague-Dawley rat at 10 umol/kg, po; assay type: ADME, organism-based; conditions: in vivo

Chain of Sodium channel protein type 5 subunit alpha (Q14524 whole entry): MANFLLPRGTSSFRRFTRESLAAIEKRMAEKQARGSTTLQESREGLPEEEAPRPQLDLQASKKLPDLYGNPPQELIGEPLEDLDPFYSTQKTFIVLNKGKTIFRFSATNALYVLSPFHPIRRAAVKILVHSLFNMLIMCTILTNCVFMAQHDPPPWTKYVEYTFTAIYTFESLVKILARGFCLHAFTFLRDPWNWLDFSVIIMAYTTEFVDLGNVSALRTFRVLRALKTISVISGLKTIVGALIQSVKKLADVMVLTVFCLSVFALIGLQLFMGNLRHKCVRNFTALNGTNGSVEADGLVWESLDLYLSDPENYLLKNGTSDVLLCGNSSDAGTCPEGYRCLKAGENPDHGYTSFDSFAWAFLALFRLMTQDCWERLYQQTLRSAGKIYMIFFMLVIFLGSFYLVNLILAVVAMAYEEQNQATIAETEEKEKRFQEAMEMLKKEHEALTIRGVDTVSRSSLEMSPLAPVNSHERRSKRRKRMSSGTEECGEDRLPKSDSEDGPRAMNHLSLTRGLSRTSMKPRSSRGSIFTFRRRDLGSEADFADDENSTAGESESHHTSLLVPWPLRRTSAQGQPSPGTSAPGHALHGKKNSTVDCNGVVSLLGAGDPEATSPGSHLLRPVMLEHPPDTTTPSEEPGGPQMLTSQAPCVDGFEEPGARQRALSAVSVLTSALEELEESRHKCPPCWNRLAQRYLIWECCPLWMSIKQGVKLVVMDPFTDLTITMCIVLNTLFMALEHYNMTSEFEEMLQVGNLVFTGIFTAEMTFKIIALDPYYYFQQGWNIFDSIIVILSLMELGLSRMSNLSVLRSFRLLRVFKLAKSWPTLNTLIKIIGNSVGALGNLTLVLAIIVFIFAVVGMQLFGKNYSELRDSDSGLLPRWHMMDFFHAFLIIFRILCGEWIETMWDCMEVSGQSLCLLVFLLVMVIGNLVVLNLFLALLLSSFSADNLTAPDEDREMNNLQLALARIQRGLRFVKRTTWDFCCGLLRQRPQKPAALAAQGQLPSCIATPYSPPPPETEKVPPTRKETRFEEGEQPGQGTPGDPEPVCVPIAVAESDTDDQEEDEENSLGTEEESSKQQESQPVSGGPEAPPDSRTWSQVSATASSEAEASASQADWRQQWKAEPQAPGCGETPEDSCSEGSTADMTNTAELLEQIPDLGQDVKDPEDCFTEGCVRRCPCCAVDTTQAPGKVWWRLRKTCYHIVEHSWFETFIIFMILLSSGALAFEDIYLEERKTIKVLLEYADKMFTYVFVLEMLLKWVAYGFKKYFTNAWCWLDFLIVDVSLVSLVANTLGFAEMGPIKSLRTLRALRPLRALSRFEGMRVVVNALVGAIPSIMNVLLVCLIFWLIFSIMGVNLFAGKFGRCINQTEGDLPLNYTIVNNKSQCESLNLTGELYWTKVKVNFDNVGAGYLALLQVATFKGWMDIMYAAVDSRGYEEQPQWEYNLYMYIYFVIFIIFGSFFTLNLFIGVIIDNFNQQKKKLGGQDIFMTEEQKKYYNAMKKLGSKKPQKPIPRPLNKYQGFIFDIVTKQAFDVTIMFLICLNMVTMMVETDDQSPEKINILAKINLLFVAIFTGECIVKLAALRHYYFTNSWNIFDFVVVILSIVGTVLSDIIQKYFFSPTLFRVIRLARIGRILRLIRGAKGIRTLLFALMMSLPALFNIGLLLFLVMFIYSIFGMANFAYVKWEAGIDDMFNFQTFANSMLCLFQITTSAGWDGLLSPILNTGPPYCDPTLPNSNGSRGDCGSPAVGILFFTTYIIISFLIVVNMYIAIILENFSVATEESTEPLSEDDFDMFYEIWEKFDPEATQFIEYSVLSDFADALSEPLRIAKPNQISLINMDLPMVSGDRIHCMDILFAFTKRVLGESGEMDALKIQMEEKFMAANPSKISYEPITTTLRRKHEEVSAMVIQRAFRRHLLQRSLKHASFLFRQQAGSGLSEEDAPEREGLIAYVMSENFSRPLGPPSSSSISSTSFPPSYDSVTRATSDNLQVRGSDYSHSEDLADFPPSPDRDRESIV
Chain of Sodium channel protein type 9 subunit alpha (Q15858 whole entry): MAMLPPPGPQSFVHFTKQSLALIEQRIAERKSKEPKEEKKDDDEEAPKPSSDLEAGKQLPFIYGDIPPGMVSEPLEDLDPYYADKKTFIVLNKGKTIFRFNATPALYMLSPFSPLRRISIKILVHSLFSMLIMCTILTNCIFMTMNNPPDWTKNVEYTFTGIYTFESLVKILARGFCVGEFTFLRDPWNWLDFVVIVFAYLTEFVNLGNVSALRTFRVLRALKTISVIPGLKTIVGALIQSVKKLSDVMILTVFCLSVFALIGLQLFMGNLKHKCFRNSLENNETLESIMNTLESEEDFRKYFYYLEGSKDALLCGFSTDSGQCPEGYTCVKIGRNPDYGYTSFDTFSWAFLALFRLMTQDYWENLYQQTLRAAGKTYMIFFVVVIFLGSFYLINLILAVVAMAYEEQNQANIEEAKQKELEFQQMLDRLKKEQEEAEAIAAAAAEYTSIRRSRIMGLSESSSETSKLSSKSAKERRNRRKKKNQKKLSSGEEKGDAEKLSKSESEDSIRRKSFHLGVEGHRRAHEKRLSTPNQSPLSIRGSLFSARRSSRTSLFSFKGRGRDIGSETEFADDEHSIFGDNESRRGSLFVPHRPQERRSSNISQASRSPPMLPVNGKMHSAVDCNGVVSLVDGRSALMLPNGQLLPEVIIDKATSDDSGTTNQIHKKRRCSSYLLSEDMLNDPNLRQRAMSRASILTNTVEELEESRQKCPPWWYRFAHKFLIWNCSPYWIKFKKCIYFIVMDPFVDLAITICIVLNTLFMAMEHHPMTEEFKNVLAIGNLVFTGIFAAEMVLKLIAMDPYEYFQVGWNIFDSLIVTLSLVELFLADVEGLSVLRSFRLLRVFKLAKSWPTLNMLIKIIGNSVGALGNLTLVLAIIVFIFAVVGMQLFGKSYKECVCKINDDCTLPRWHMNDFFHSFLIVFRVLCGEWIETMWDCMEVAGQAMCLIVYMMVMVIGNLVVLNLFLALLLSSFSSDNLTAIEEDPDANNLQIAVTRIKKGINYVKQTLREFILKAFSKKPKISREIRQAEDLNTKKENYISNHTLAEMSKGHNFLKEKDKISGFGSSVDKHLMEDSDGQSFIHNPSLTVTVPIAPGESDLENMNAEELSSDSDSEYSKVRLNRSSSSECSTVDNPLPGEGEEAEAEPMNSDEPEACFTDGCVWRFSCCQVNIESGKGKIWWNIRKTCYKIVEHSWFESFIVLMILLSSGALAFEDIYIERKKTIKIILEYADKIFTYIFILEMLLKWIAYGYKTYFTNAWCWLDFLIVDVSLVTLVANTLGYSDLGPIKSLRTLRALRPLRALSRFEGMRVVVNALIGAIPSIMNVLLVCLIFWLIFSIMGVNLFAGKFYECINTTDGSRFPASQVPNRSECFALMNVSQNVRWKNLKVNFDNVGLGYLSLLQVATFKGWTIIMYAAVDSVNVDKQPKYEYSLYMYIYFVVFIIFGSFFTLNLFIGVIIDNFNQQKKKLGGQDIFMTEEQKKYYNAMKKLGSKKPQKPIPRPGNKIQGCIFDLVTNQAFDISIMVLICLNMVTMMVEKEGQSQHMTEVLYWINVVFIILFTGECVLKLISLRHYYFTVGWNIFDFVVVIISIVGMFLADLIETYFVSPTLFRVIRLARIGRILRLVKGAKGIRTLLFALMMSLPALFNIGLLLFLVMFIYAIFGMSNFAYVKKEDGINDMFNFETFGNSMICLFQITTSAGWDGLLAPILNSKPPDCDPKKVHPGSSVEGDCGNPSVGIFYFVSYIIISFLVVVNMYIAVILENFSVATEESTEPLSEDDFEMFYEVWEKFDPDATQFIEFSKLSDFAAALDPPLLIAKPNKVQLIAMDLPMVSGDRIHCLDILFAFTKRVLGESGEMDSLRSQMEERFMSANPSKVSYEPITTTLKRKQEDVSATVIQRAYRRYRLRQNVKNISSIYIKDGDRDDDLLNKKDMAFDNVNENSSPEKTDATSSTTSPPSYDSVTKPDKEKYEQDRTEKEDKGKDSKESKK
Chain of Voltage-gated inwardly rectifying potassium channel KCNH2 (Q12809 whole entry): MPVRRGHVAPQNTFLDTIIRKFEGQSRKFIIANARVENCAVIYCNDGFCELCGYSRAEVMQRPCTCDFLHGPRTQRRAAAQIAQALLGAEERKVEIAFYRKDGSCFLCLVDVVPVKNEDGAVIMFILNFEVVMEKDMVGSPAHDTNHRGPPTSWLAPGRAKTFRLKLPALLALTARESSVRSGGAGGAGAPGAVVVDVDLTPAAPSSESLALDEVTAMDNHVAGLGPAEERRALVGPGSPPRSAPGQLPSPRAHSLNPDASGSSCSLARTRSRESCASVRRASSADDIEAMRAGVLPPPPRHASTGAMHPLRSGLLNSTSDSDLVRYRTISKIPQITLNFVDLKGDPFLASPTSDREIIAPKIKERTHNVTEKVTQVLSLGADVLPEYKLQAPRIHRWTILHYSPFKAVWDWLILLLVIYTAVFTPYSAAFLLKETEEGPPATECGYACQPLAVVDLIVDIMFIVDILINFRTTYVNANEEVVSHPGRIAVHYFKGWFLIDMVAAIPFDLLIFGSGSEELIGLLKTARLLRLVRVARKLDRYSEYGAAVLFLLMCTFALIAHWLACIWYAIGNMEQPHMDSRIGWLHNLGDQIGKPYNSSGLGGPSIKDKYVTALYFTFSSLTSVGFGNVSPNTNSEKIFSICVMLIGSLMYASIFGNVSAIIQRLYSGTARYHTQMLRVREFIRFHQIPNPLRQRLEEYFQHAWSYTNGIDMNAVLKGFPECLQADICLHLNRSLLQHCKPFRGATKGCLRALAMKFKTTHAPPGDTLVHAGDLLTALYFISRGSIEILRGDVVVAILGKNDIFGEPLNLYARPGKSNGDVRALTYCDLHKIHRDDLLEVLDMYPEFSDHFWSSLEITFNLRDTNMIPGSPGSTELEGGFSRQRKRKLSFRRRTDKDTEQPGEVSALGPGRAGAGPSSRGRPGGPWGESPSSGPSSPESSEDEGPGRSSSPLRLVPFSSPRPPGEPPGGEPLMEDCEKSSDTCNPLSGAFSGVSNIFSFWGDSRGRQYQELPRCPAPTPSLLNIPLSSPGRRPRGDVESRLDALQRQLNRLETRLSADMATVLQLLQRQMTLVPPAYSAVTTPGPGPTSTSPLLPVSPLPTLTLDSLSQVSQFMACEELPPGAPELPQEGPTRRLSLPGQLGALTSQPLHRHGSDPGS

| SMILES | IC50 [1] [nM] | IC50 [2] [nM] | other results |
| --- | --- | --- | --- |
| Cc1onc(-c2c(Cl)cccc2Cl)c1NC(=O)OCc1ccccc1Cl | 24 | 8710 |  |
| Cc1onc(-c2c(Cl)cccc2Cl)c1NC(=O)OCc1cc(Cl)ccc1Cl | 138 | 2630 |  |
| Cc1onc(-c2c(Cl)cccc2Cl)c1NC(=O)OCc1ccc(OC(C)C)nc1 | 22.9 | 8710 |  |
| Cc1onc(-c2c(Cl)cccc2Cl)c1NC(=O)OCc1ccc(OC2CCCC2)nc1 | 28.8 | 1350 |  |
| Cc1onc(-c2c(Cl)cccc2Cl)c1N(C)C(=O)OCc1ccc(OC(C)C)nc1 | 224 | > 28800 |  |
| COCc1onc(-c2c(Cl)cccc2Cl)c1NC(=O)OCc1ccccc1Cl | 331 | > 28200 |  |
| O=C(Nc1conc1-c1c(Cl)cccc1Cl)OCc1c(F)cccc1Cl | 12600 |  |  |
| Cc1onc(-c2c(Cl)cccc2Cl)c1N(C)C(=O)NCc1ccc(OC2CCOCC2)nc1 | 170 | 5890 |  |
| Cc1onc(-c2ccccc2Cl)c1N(C)C(=O)NCc1ccc(OC2CCOCC2)nc1 | 3630 | > 33100 |  |
| Cc1cccc(C)c1-c1noc(C)c1N(C)C(=O)NCc1ccc(OC2CCOCC2)nc1 | 4470 | > 33100 |  |
| Cc1onc(-c2c(Cl)cncc2Cl)c1NC(=O)NCc1ccc(OC(C)C)nc1 | 12600 | > 33100 |  |
| Cc1onc(-c2c(Cl)cccc2Cl)c1CC(=O)NCc1ccc(OC(C)C)nc1 | 126 | 4680 |  |
| Cc1onc(-c2c(Cl)cccc2Cl)c1CC(=O)NCc1ccc(OCC(F)(F)F)nc1 | 178 | > 33100 | IC50 [3]: > 26300 nM; solubility [4]: 36 µM (≈ 17.1 µg/mL); microsomal CLint [13]: 64 µL/min/mg; microsomal CLint [14]: 116 µL/min/mg; AUC/dose (Rattus norvegicus [5]): 0.46 kg·h/L; Vd [6]: 1.6 L/kg; half-life [7]: 36 min; clearance [8]: 36 mL/min/kg; AUC/dose (Rattus norvegicus [9]): 0.12 kg·h/L; Cmax [10]: 400 nM; Tmax [11]: 18 min; half-life [15]: 228 min; bioavailability [12]: 19% |
| Cc1cccc(C)c1-c1noc(C)c1CC(=O)NCc1ccc(OCC(F)(F)F)nc1 | 1230 | > 33100 |  |
| Cc1onc(-c2c(Cl)cccc2Cl)c1CC(=O)NCc1ccc(-n2cccn2)cc1 | 851 | > 33100 |  |
| Cc1cccc(C)c1-c1noc(C)c1CC(=O)NCc1cccc(OCCOCC(F)(F)F)n1 | 58.9 | 12000 |  |

Further lines, with some results ahead:

| IC50 [1] [nM] | SMILES | IC50 [2] [nM] | other results |
| --- | --- | --- | --- |
| 28.2 | Cc1onc(-c2c(Cl)cccc2Cl)c1NC(=O)OCc1c(F)cccc1Cl | 5500 | IC50 [3]: > 26300 nM; solubility [4]: < 1 µM; AUC/dose (Rattus norvegicus [5]): 0.73 kg·h/L; Vd [6]: 3 L/kg; half-life [7]: 84 min; clearance [8]: 45 mL/min/kg; AUC/dose (Rattus norvegicus [9]): 0.001 kg·h/L; Cmax [10]: 7 nM; Tmax [11]: 19.8 min; bioavailability [12]: 0.3% |
| 151 | Cc1onc(-c2c(Cl)cccc2Cl)c1NC(=O)OCc1cccc(N(C)C)c1 | > 25700 |  |
| 302 | Cc1onc(-c2c(Cl)cccc2Cl)c1N(C)C(=O)OCc1c(F)cccc1Cl | > 33100 |  |
| 9.33 | CCc1onc(-c2c(Cl)cccc2Cl)c1NC(=O)OCc1c(F)cccc1Cl | 7240 |  |
| 72.4 | Cc1onc(-c2c(F)cccc2Cl)c1NC(=O)OCc1c(F)cccc1Cl | > 15800 |  |
| 10.5 | Cc1cccc(C)c1-c1noc(C)c1NC(=O)OCc1c(F)cccc1Cl | 7760 |  |
| 162 | Cc1onc(-c2c(Cl)cccc2Cl)c1NC(=O)NCc1c(F)cccc1Cl | 8510 |  |
| 38 | Cc1cccc(C)c1-c1noc(C)c1NC(=O)NCc1c(F)cccc1Cl | > 10500 |  |
| 209 | Cc1cccc(C)c1-c1noc(C)c1NC(=O)NCc1ccc(OC(C)C)nc1 | 20000 |  |
| 263 | Cc1onc(-c2c(Cl)cccc2Cl)c1NC(=O)NCc1ccc(-n2cccn2)cc1 | > 33100 |  |
| 1170 | Cc1cccc(C)c1-c1noc(C)c1NC(=O)NCc1ccc(-n2cccn2)cc1 | > 33100 |  |
